Assay results published in US20100105864A1, “PROPHYLACTIC OR THERAPEUTIC AGENT FOR DIARRHEA” (priority 2007, published 2010).

Biological target: T1, human calcium receptor (Homo sapiens, UniProt P41180)
T1 construct: expressed in transfected cells; host or cells: Xenopus laevis oocytes injected with cRNA
T1 sequence (P41180 20-1078): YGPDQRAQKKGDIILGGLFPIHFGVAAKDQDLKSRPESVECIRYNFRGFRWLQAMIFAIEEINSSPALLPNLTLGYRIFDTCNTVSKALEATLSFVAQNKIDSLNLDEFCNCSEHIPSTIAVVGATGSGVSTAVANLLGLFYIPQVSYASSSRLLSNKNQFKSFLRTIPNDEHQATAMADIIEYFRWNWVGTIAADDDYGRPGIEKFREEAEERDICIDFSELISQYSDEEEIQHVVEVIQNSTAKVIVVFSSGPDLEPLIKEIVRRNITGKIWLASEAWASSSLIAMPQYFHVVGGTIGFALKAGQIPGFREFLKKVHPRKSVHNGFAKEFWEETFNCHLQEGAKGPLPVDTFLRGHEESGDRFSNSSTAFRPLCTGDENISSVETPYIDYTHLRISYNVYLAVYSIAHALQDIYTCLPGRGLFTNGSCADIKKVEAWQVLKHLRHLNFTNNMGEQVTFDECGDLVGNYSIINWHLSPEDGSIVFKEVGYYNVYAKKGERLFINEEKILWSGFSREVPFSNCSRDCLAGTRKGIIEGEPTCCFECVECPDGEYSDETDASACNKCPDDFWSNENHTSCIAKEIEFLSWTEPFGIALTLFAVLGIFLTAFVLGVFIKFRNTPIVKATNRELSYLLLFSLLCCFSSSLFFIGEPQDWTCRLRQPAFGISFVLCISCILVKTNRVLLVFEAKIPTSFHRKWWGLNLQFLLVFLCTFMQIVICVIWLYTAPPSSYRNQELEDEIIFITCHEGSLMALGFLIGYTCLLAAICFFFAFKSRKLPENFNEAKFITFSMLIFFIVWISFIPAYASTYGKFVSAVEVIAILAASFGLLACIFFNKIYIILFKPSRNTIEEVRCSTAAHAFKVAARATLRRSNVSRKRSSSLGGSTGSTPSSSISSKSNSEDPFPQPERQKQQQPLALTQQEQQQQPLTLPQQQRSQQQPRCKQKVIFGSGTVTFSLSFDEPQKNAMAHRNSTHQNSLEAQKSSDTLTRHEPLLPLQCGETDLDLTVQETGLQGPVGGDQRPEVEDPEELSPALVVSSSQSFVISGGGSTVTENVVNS
Assay: Ca ion concentration-dependent Cl ionic current measurement in Xenopus laevis oocytes expressing the calcium receptor
Assay type: cell-based
Conditions: peptide added at 50 μM
Experimental: For evaluation of the calcium receptor-activating action, a Ca ion concentration-dependent Cl ionic current measuring method using a Xenopus laevis oocyte expression system was used. If each activator is added to Xenopus laevis oocytes expressing the calcium receptor, intracellular Ca ions increase. Then, the Ca ion concentration-dependent Cl channel opens, and the intracellular current value changes as an ionic current. By measuring the change in the intracellular current value, whether the calcium receptor-activating action is present or not can be determined.
Specifically, the abdomen of Xenopus laevis was opened, and an egg batch was taken out and then treated with a 1% collagenase solution at 20° C. for 2 hours to obtain individual oocytes. Into the oocytes, 50 nl of 1 μg/μl receptor cRNA or 50 nl of sterilized water per oocyte were injected by using a micro glass capillary, and the oocytes were cultured at 18° C. for 2 to 3 days. For the culture, a solution obtained by adding 2 mM pyruvic acid, 10 U/ml penicillin, and 10 μg/ml streptomycin to the solution in Example 2 was used. After the culture, a test solution was added to the oocytes injected with cRNA or sterilized water. Electrophysiological measurement was performed by using an amplifier Geneclamp 500 (manufactured by Axon) and recording software AxoScope 9.0 (manufactured by Axon). The oocytes were membrane potential-clamped at −70 mV by the double electrode potential clamp method, and the intracellular current was measured via the Ca ion concentration-dependent Cl ion channel. The maximum value of the intracellular current was defined as the response current value. […]
The calcium receptor-activating action of L-amino acids was evaluated by using the method described in Example 13. That is, oocytes injected with cRNA of the calcium receptor or sterilized water were prepared, and membrane potential-clamped at −70 mV by the double electrode potential clamp method. To the potential-clamped oocytes, alanine (10 mM), arginine (10 mM), asparagine (10 mM), aspartic acid (10 mM), cysteine (10 mM), glutamine (10 mM), glutamic acid (10 mM), glycine (10 mM), histidine (10 mM), isoleucine (10 mM), leucine (10 mM), lysine (10 mM), methionine (10 mM), phenylalanine (10 mM), proline (10 mM), serine (10 mM), threonine (10 mM), tryptophan (10 mM), tyrosine (10 mM), valine (10 mM), ornithine (10 mM), taurine (10 mM), or hydroxyproline (10 mM) was added, and Ca ion concentration-dependent Cl response current was measured. […] As for the above-described amino acids, the activating action is reported in Proc. Natl. Acad. Sci. USA, Apr. 25, 2000, 97(9): 4814-9.
The calcium receptor-activating action of D-cysteine was evaluated by using the method described in Example 13. That is, oocytes injected with cRNA of the calcium receptor or sterilized water were prepared, and membrane potential-clamped at −70 mV by the double electrode potential clamp method. To the potential-clamped oocytes, D-cysteine (10 mM), L-cysteine (10 mM), D-tryptophan (10 mM), or L-tryptophan (10 mM) was added, and Ca ion concentration-dependent Cl response current was measured.
The calcium receptor-activating action of a peptide was evaluated by using the method described in Example 13. That is, oocytes injected with cRNA of the calcium receptor or sterilized water were prepared, and membrane potential-clamped at −70 mV by the double electrode potential clamp method.

SMILES: N[C@@H](CCC(=O)N[C@@H](CS)C(=O)NCC(=O)O)C(=O)O [γ-Glu-Cys-Gly]
- calcium receptor-activating action (Ca ion concentration-dependent Cl response current): definite calcium receptor-activating action
